What all share (format): cell-based
Assay [1] concerns the target T1, KRAS G12D (Homo sapiens, UniProt P01116, G12D).
T1 construct: AsPc-1-KRAS (G12D)-HiBit-KI cell (Pharmaron); host or cells: AsPc-1-KRAS (G12D)-HiBit-KI cells (HiBiT knock-in at the endogenous KRAS locus)
The assay is described as follows: KRAS G12D HiBit assay. To be noted: AsPc-1-KRAS (G12D)-HiBit-KI cell, compound treatment for 24 hours; for DC50: absolute DC50. The method, boiled down:
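Cells were treated for 24 h with compounds in a 3-fold, 10-point dilution series from a 0.3 mM DMSO stock, then equilibrated 15 min at room temperature. KRAS G12D HiBiT levels were read by luminescence after lytic Nano-Glo HiBiT reagent with LgBiT; inhibition calculated relative to 0.1% DMSO high control.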
For orientation: HiBiT is a short tag that completes a luciferase, so light tracks the accessible tagged protein.

The target of assay [2] is T2, KRAS G12V (Homo sapiens, UniProt P01116, G12V).
T2 construct: SW620-KRAS (G12V)-HiBit-KI cell (Pharmaron); host or cells: SW620-KRAS (G12V)-HiBit-KI cells (HiBiT knock-in at the endogenous KRAS locus)
Kind of assay: KRAS G12V HiBit assay. As to conditions: SW620-KRAS (G12V)-HiBit-KI cells, compound treatment for 24 hours, class symbols. An outline of the steps:
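HiBiT-tagged KRAS G12V cells treated 24 h with compound in a 3-fold, 10-point series (0.3 mM DMSO stock); lytic HiBiT reagent with LgBiT added after 15 min room-temperature equilibration. Degradation calculated against 0.1% DMSO high control.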

Assay [3] concerns the target T3, KRAS (Homo sapiens, UniProt P01116).
T3 construct: endogenous in cells; host or cells: KE39 (KRAS amplified) cells
The assay is described as follows: KRASamp MSD assay. As to conditions: KE39 (KRAS amplified) cells, treated with test compounds for 24 hr, MSD readout of KRAS degradation. As to the method: KE39 (KRAS amplified) cells were cultured in RPMI 1640 medium (Gibco, 11875093), seeded into 96 well plate and treated with test compounds for 24 hr. The cells were washed with PBS and lysed in plate for 1 hr at 4° C. with agitation in RIPA buffer (Cat No. BP-115D) supplemented with protease and phosphatase inhibitor cocktail. The lysates were loaded into MSD plate coated with KRAS capture antibody (LSBio, C175665, 1:1000) for 1 h at RT with agitation. The plate was then washed three times with TBST and incubated with KRAS detection antibody (Abcam, Ab275876. 1:2000) for 1 h at RT. After washing three times with TBST, the plate was incubated with secondary detection antibody GAR (1:500) for 1 hr at RT followed with 3×TBST washing. 2×MSD reading buffer was added into individual wells and the plate was finally read by MSD reader (MSD, SQ 120 MM). The recombinant WT KRAS protein was used for standard curve generation and protein quantification. The degradation activity was calculated using the following formula: […]
DC50 was calculated by fitting the curve using GraphPad Prism v8.0.2 (analysis 263): […]

Setting [4] is: numeric bounds given in place of class symbols.

T2 sequence (P01116 1-188 isoform P01116-2 G12V): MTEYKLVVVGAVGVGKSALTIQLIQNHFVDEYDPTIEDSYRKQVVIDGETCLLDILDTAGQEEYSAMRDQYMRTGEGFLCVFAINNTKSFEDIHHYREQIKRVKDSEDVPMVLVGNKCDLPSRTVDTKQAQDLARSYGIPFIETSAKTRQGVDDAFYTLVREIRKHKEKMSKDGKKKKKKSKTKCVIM
T3 sequence (P01116 1-188 isoform P01116-2): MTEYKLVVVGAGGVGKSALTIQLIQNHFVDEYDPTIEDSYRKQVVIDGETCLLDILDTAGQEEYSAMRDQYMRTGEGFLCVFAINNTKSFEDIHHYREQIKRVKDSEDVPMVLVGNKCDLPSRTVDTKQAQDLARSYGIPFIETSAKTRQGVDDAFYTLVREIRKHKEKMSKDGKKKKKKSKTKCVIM
T1 sequence (P01116 1-188 isoform P01116-2 G12D): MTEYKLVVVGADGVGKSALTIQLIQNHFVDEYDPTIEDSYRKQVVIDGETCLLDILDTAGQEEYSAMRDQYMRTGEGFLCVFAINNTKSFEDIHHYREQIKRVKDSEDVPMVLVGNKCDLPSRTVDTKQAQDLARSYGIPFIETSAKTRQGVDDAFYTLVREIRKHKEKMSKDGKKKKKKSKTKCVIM

Regarding `CCc1c(F)ccc2cc(O)cc(-c3ncc4c(N5CCC[C@@](C)(O)C5)nc(OC[C@]56CCCN5[C@H](COC(=O)N5CCC(CCCOc7ccc8c(c7)n(C)c(=O)n8C7CCC(=O)NC7=O)CC5)CC6)nc4c3F)c12` (stereo partly drawn) [Compound 302, ((3S,7aR)-7a-(((7-(8-ethyl-7-fluoro-3-hydroxynaphthalen-1-yl)-8-fluoro-4-((R)-3-hydroxy-3-methylpiperidin-1-yl)pyrido[4,3-d]pyrimidin-2-yl)oxy)methyl)hexahydro-1H-pyrrolizin-3-yl)methyl 4-(3-((1-(2,6-dioxopiperidin-3-yl)-3-methyl-2-oxo-2,3-dihydro-1H-benzo[d]imidazol-5-yl)oxy)propyl)piperidine-1-carboxylate], the DC50 in assay [1] (setting [4]) was above 100 nM; in assay [2], below 10 nM; in assay [3], below 1 nM.
On to `Cn1c(=O)n(C2CCC(=O)NC2=O)c2ccc(C3CCN(C4CC5(CCN(C(=O)OC[C@@H]6CC[C@]7(COc8nc(N9CCC[C@@](C)(O)C9)c9cnc(-c%10cc(O)cc%11ccc(F)cc%10%11)c(F)c9n8)CCCN67)CC5)C4)CC3)cc21` (stereo partly drawn) [Compound 438, ((3S,7aS)-7a-(((8-fluoro-7-(7-fluoro-3-hydroxynaphthalen-1-yl)-4-((R)-3-hydroxy-3-methylpiperidin-1-yl)pyrido[4,3-d]pyrimidin-2-yl)oxy)methyl)hexahydro-1H-pyrrolizin-3-yl)methyl 2-(4-(1-(2,6-dioxopiperidin-3-yl)-3-methyl-2-oxo-2,3-dihydro-1H-benzo[d]imidazol-5-yl)piperidin-1-yl)-7-azaspiro[3.5]nonane-7-carboxylate], for which the DC50 is below 100 nM in assay [1] (class symbols), below 10 nM in assay [2] and below 1 nM in assay [3].
As to `C#Cc1c(F)ccc2cc(O)cc(-c3ncc4c(N5CCCCC5)nc(OCC5(CN6CCN(CC7CCN(c8ccc9c(c8)n(C)c(=O)n9C8CCC(=O)NC8=O)CC7)CC6)CC5)nc4c3F)c12` (stereo not drawn) [Compound 15], the DC50 in assay [1] (class symbols) was 100 to 300 nM; in assay [2], above 100 nM; in assay [3], at least 10 nM. This compound registered a Dmax in assay [1] (class symbols) above 50%.
Regarding `Cn1c(=O)n(C2CCC(=O)NC2=O)c2ccc(C3CCN(CC4CCN(C(=O)OC[C@@H]5CC[C@]6(COc7nc(N8CCC[C@@](C)(O)C8)c8cnc(-c9cc(O)cc%10ccc(F)c(F)c9%10)c(F)c8n7)CCCN56)CC4)CC3)cc21` (stereo partly drawn) [Compound 410, ((3S,7aS)-7a-(((7-(7,8-difluoro-3-hydroxynaphthalen-1-yl)-8-fluoro-4-((R)-3-hydroxy-3-methylpiperidin-1-yl)pyrido[4,3-d]pyrimidin-2-yl)oxy)methyl)hexahydro-1H-pyrrolizin-3-yl)methyl 4-((4-(1-(2,6-dioxopiperidin-3-yl)-3-methyl-2-oxo-2,3-dihydro-1H-benzo[d]imidazol-5-yl)piperidin-1-yl)methyl)piperidine-1-carboxylate], the DC50 in assay [1] (class symbols) was below 100 nM; in assay [2], below 10 nM; in assay [3], below 1 nM.
Regarding `CCc1c(F)ccc2cc(O)cc(-c3ncc4c(N5CCC[C@@](C)(O)C5)nc(OC[C@@]56CCCN5[C@@H](COC(=O)N5CCC(CCCCOc7ccc8c(c7)n(C)c(=O)n8C7CCC(=O)NC7=O)CC5)CC6)nc4c3F)c12` (stereo partly drawn) [Compound 317, ((3R,7aS)-7a-(((7-(8-ethyl-7-fluoro-3-hydroxynaphthalen-1-yl)-8-fluoro-4-((R)-3-hydroxy-3-methylpiperidin-1-yl)pyrido[4,3-d]pyrimidin-2-yl)oxy)methyl)hexahydro-1H-pyrrolizin-3-yl)methyl 4-(4-((1-(2,6-dioxopiperidin-3-yl)-3-methyl-2-oxo-2,3-dihydro-1H-benzo[d]imidazol-5-yl)oxy)butyl)piperidine-1-carboxylate], the DC50 in assay [1] (class symbols) was below 100 nM; in assay [2] it was above 100 nM; in assay [3], at least 10 nM.
Consider `CCc1c(F)ccc2cc(O)cc(-c3ncc4c(N5CCC[C@@](C)(O)C5)nc(OC[C@@]56CCCN5[C@H](COC(=O)N5CCC(C7(N8CCC(c9ccc%10c(c9)n(C)c(=O)n%10C9CCC(=O)NC9=O)CC8)CC7)CC5)CC6)nc4c3F)c12` (stereo partly drawn) [Compound 399, ((3S,7aS)-7a-(((7-(8-Ethyl-7-fluoro-3-hydroxynaphthalen-1-yl)-8-fluoro-4-((R)-3-hydroxy-3-methylpiperidin-1-yl)pyrido[4,3-d]pyrimidin-2-yl)oxy)methyl)hexahydro-1H-pyrrolizin-3-yl)methyl 4-(1-(4-(1-(2,6-dioxopiperidin-3-yl)-3-methyl-2-oxo-2,3-dihydro-1H-benzo[d]imidazol-5-yl)piperidin-1-yl)cyclopropyl) piperidine-1-carboxylate], for which the DC50 in assay [1] (class symbols) is below 100 nM; in assay [2], below 10 nM; in assay [3], below 1 nM.
On to `CCc1c(F)ccc2cc(O)cc(-c3ncc4c(N5CCC[C@@](C)(O)C5)nc(OC[C@@]56CCCN5[C@@H](COC(=O)N5CCC(COc7ccc8c(c7)n(C)c(=O)n8C7CCC(=O)NC7=O)CC5)CC6)nc4c3F)c12` (stereo partly drawn) [Compound 314, ((3R,7aS)-7a-(((7-(8-ethyl-7-fluoro-3-hydroxynaphthalen-1-yl)-8-fluoro-4-((R)-3-hydroxy-3-methylpiperidin-1-yl)pyrido[4,3-d]pyrimidin-2-yl)oxy)methyl)hexahydro-1H-pyrrolizin-3-yl)methyl 4-(((1-(2,6-dioxopiperidin-3-yl)-3-methyl-2-oxo-2,3-dihydro-1H-benzo[d]imidazol-5-yl)oxy)methyl)piperidine-1-carboxylate], for which the DC50 in assay [1] (setting [4]) is above 100 nM; in assay [2], above 100 nM; in assay [3], at least 10 nM.
With `CCc1c(F)ccc2cc(O)cc(-c3ncc4c(N5CCC[C@@](C)(O)C5)nc(OC[C@@]56CCCN5[C@H](COC(=O)N5CC(CN7CCC(c8ccc9c(c8)n(C)c(=O)n9C8CCC(=O)NC8=O)CC7)C5)CC6)nc4c3F)c12` (stereo partly drawn) [Compound 394, ((3S,7aS)-7a-(((7-(8-ethyl-7-fluoro-3-hydroxynaphthalen-1-yl)-8-fluoro-4-((R)-3-hydroxy-3-methylpiperidin-1-yl)pyrido[4,3-d]pyrimidin-2-yl)oxy)methyl)hexahydro-1H-pyrrolizin-3-yl)methyl 3-((4-(1-(2,6-dioxopiperidin-3-yl)-3-methyl-2-oxo-2,3-dihydro-1H-benzo[d]imidazol-5-yl)piperidin-1-yl)methyl)azetidine-1-carboxylate], the DC50 in assay [1] (setting [4]) is above 100 nM; in assay [2], below 10 nM; in assay [3], 1 to 10 nM.
On to `C#Cc1c(F)ccc2cc(O)cc(-c3ncc4c(N5CCC[C@@](C)(O)C5)nc(OC[C@@]56CCCN5[C@H](COC(=O)N5CCC(C7CCN(c8ccc9c(c8)n(C)c(=O)n9C8CCC(=O)NC8=O)CC7)CC5)CC6)nc4c3F)c12` (stereo partly drawn) [Compound 32], for which the DC50 in assay [1] (setting [4]) was above 100 nM; in assay [3] it was 1 to 10 nM.
Turning to `CCc1c(F)ccc2cc(O)cc(-c3ncc4c(N5CCCC(C)(CO)C5)nc(OC[C@@]56CCCN5[C@H](COC(=O)N5CCC(CN7CCC(c8ccc9c(c8)n(C)c(=O)n9C8CCC(=O)NC8=O)CC7)CC5)CC6)nc4c3F)c12` (stereo partly drawn) [Compound 341, ((3S,7aS)-7a-(((7-(8-ethyl-7-fluoro-3-hydroxynaphthalen-1-yl)-8-fluoro-4-(3-(hydroxymethyl)-3-methylpiperidin-1-yl)pyrido[4,3-d]pyrimidin-2-yl)oxy)methyl)hexahydro-1H-pyrrolizin-3-yl)methyl 4-((4-(1-(2,6-dioxopiperidin-3-yl)-3-methyl-2-oxo-2,3-dihydro-1H-benzo[d]imidazol-5-yl)piperidin-1-yl)methyl)piperidine-1-carboxylate], the DC50 in assay [1] (setting [4]) is above 100 nM; in assay [2], above 100 nM; in assay [3], at least 10 nM.
For the compound `CCc1c(F)ccc2cc(O)cc(-c3ncc4c(N5CCC[C@@](C)(O)C5)nc(OC[C@@]56CCCN5[C@H](COC(=O)N5CCC(OCCC#Cc7cccc8c7n(C)c(=O)n8C7CCC(=O)NC7=O)CC5)CC6)nc4c3F)c12` (stereo partly drawn) [Compound 370, ((3S,7aS)-7a-(((7-(8-Ethyl-7-fluoro-3-hydroxynaphthalen-1-yl)-8-fluoro-4-((R)-3-hydroxy-3-methylpiperidin-1-yl)pyrido[4,3-d]pyrimidin-2-yl)oxy)methyl)hexahydro-1H-pyrrolizin-3-yl)methyl4-((4-(1-(2,6-dioxopiperidin-3-yl)-3-methyl-2-oxo-2,3-dihydro-1H-benzo[d]imidazol-4-yl)but-3-yn-1-yl)oxy)piperidine-1-carboxylate], the DC50 in assay [1] (class symbols) was below 100 nM; in assay [2] it was below 10 nM; in assay [3], 1 to 10 nM.

The values are drawn from patent US12599672B2, “KRAS proteolysis targeting chimeras” (PAQ Therapeutics Inc., priority 2023, dated 2026).
